This note sets out measurements from article PMC9530242, “Cryo-EM structure-based selection of computed ligand poses enables design of MTA-synergic PRMT5 inhibitors of better potency” (Communications Biology, 2022).

The structures appear in SMILES notation. “And” between values parts separate entries of the source, which are not always exact repeats. Equal values may be shown once. Read-outs that look alike come from different tables or passages of the source.

Usually IC50 stands for the midpoint of a concentration-inhibition curve. A word on the Kd: it is a measure of binding affinity in units of concentration. A high value points to lower affinity. What is called koff is a measure of how fast the partners let go of each other. In general, kon refers to a measure of how fast the partners come together.

Assay [1] concerns SDMA from PRMT5 activity in MDA-MB-231 cells. The assay is described as follows: Cell-based assay of SDMA by western blotting (MTA-synergy in cultured cells). The settings on record: Homo sapiens, MDA-MB-231, 96 h, read-out: IC50, inhibition of SDMA production. The source says: The above analysis highlighted three principles that should be considered to enhance PRMT5 inhibition by 11-2F analogs. (1) It is important to retain the quinoline ring backbone to maintain the positive cooperativity with MTA. (2) The pi-stacking interactions of Trp579 and Phe327 with the quinoline ring may be enhanced to keep the inhibitor properly oriented, which could be achieved by introducing small groups (-F, or -CH3, or -NH3^+) to the ring. (3) The cyclo-alkylated indole ring of 11-2F is relatively flexible and may be stabilized by introducing H-bonds or electrostatic interactions with the binding pocket, especially with the residues on the flexible loop. […] Three 11-2F analogs predicted to have higher potency introduce more interactions with the binding pockets (Table 2; Supplementary Figs. 6–8, and Supplementary Tables 5–7). […] In the binding pocket, the 2,4-di-NH2-quinazoline of 11-9 F forms H-bonds with E444, E435, and S439, and its aromatic ring is sandwiched between the sidechains of Phe327 and Trp579. […]
MDA-MB-231 cells were seeded at 1.0 × 10^6 cells/dish and allowed to adhere overnight. […] The protein concentrations were determined using the BCA Protein Assay kit (Pierce #23227). […] After three washes with the TBST buffer, the membrane was analyzed using ECL Western blotting detection reagents (Pierce #34096) and imaged in a ChemiDoc MP imaging system (Bio-Rad). […]

Assay [2] concerns the target T1, PRMT5:MEP50 (Homo sapiens, UniProt O14744).
T1 construct: full-length human PRMT5 (residues 1–637, NP_006100); FLAG; made in house; host or cells: Sf9 insect cells (Bac-to-Bac baculovirus)
The assay is described as follows: MTase-Glo methyltransferase enzymatic inhibition assay (methylation of H4 peptide). The class given is biochemical. The settings on record: 100 nM PRMT5:MEP50, 10 µM SAM, 2 µM histone H4 peptide (1-21), n = 3.
Procedure: Recombinant PRMT5:MEP50 was purified to biochemical homogeneity from sf9 cells (Supplementary Fig. 1). Inhibition of PRMT5 activity (methylation of H4 peptide) was monitored by measuring luminescence from a MTase-Glow detection reagent.
PRMT5:MEP50 protein complex was prepared as described by Antonysamy, S., et al.[39]. Briefly, full-length human PRMT5 (residues 1–637, NP_006100) and human MEP50 (residues 2–342, NP_077007) were co-expressed in Sf9 cells using a Bac-to-Bac expression system (Invitrogen). The cells were harvested and lysed. […]
11-2 F was serially diluted by 5-fold from 500 µM to 6.4 nM in DMSO then added into reaction buffer (30 mM Tris-HCl at pH 7.4, 500 mM NaCl, 2 mM MgCl2, 2 mM TCEP, 0.1% (wt/vol) BSA and 0.01% (vol/vol) Tween-20) with final DMSO concentration at 5% (vol/vol). […] After shaking for 2 min and incubation at room temperature for 30 min, 20 µl room temperature MTase-Glo Detection Solution was added and mixed well before incubation for another 30 min and luminescence recording. Luminescence was measured in a Synergy Neo2 HTS multimode microplate reader (BioTek). […] Data are analyzed in GraphPad Prism 8. For inhibitor studies, IC50 was determined by nonlinear regression (curve fitting) using the equation for the sigmoidal dose response (variable slope).

Assay [3] addresses T1, PRMT5:MEP50. The assay is described as follows: Surface plasmon resonance (SPR) binding study. How it is done: PRMT5:MEP50 protein complex was prepared as described by Antonysamy, S., et al.[39]. Briefly, full-length human PRMT5 (residues 1–637, NP_006100) and human MEP50 (residues 2–342, NP_077007) were co-expressed in Sf9 cells using a Bac-to-Bac expression system (Invitrogen). The cells were harvested and lysed. After removal of cell debris, supernatants were collected for FLAG-affinity chromatography (Sigma; A2220) and fractionated by size exclusion chromatography in a 10/300 Superose 6 column (GE Life Sciences). The purified PRMT5:MEP50 complex was characterized by SDS-PAGE and sedimentation velocity analytical ultracentrifugation (SV-AUC) using a ProteomeLab™XL-I system (Beckman Coulter; Supplementary Fig. 1). Protein samples were concentrated to 12 mg/mL in a buffer containing 10 mM HEPES at pH 7.5, 150 mM NaCl, 10% (vol/vol) glycerol and 2.0 mM DTT and were stored at −80 °C until the time of use.
Binding affinity measurements were conducted in a Reichert2SPR instrument (Ametek) at 25 °C. PRMT5:MEP50 proteins were directly immobilized onto a 500,000 Da carboxymethyl dextran sensor chip at pH 5.5 using a standard amine-coupling approach. The small molecule analyte (11-2 F as an example) was injected at a flow rate of 30 μL/min of different concentrations in the running buffer (10 mM HEPES pH 7.4, 150 mM NaCl, 3.0 mM EDTA, 0.005% v/v Tween-20, and 5% DMSO). The association and dissociation times were set to be 1 min. […] The dissociation time for 11-2 F in MTA-containing running buffer was elongated to be 3 min to achieve complete dissociation. Sensorogram data were processed using the TraceDrawer software package to calculate the equilibrium dissociation constant KD, the association rate constant kon and the dissociation rate constant koff.
For orientation: In SPR one partner is held on a chip, and binding of the other changes the refractive index at the surface.

T1 sequence (O14744 whole entry, the tested form may be a part): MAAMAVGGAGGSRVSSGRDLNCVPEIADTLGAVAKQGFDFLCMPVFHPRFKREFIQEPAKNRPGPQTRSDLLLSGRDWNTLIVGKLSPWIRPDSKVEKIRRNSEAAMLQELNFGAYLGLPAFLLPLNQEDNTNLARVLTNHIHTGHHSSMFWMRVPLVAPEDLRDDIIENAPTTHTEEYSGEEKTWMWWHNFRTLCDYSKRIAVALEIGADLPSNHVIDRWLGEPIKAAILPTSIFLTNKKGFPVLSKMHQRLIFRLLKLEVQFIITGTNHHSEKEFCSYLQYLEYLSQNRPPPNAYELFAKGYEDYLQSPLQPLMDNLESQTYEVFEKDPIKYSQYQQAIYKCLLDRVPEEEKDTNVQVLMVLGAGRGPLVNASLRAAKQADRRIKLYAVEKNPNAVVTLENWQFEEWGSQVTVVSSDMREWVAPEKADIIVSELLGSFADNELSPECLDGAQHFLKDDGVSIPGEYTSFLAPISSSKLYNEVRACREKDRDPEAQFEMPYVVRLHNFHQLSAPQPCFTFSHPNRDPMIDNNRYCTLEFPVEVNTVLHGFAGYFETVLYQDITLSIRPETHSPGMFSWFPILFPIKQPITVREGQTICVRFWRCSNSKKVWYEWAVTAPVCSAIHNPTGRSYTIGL
T1 sequence (Q9BQA1 2-342 partner limits assumed): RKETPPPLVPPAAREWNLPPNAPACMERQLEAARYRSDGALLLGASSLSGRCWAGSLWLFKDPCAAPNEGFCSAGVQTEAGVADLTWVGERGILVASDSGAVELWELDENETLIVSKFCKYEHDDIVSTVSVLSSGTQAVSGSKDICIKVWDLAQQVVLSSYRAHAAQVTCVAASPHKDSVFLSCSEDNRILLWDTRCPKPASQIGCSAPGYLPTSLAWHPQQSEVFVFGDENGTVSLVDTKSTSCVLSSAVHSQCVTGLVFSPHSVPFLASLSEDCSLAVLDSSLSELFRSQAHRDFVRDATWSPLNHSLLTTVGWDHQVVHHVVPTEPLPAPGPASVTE

For the compound `CCn1c2c(c3cc(C(=O)NCc4ccc5c(N)nc(N)nc5c4)ccc31)CCCC2` [11-9F, N-[(2′,4′-diaminoquinazoline)-7′-methyl]-[9-ethyl-5,6,7,8-tetrahydro-carbazole]-3-carboxamide], the IC50 in assay [1] (0 μM additional MTA (black trace)) was 32400 nM; in assay [1] (5.0 μM MTA (red trace)), 2400 nM.
As to `Nc1ccc2ccc(CNC(=O)c3ccc4c(c3)c3c(n4CCO)CCCC3)cc2n1` [11-2F, N-[(2′-aminoquinoline)-7′-methyl]-[9-(2-hydroxyethyl)-5,6,7,8-tetrahydro-carbazole]-3-carboxamide], the IC50 in assay [2] (read-out: IC50, inhibition of PRMT5:MEP50 enzyme activity) was around 730 nM; in assay [2] (read-out: IC50, inhibition of PRMT5 enzyme activity), 730 ± 200 nM. Moreover, the “apparent positive coupling coefficient between 11-2F and MTA” value in assay [3] (KD without MTA vs with 25 μM MTA) is listed as ~ 166. Moreover, the Kd in assay [3] (PRMT5:MEP50 saturated with 25 μM MTA) was ~82 nM and 82.1 nM; in assay [3] (PRMT5:MEP50 saturated with 25 μM SAH) it was 1600 nM and 1630 nM; in assay [3] (PRMT5:MEP50 saturated with 25 μM SAM) it was 380 nM and 375 nM; in assay [3] (without MTA (no cofactor)), around 13600 nM. In addition, the koff turned out to be 0.0202 s⁻¹ in assay [3] (saturated with 25 μM MTA), 0.112 s⁻¹ in assay [3] (saturated with 25 μM SAH), 0.019 s⁻¹ in assay [3] (saturated with 25 μM SAM) and 0.0844 s⁻¹ in assay [3] (without MTA (no cofactor)). For the same compound, the kon in assay [3] (saturated with 25 μM MTA) came to 246000 M⁻¹ s⁻¹; in assay [3] (saturated with 25 μM SAH), 75700 M⁻¹ s⁻¹; in assay [3] (saturated with 25 μM SAM), 50700 M⁻¹ s⁻¹; in assay [3] (without MTA (no cofactor)) it was 6190 M⁻¹ s⁻¹.
